Data on 16 compounds can be found in patent US20220251079A1, “BENZO[B][1,8]NAPHTHYRIDINE ACETIC ACID DERIVATIVES AND METHODS OF USE” (STINGTHERA, INC., priority 2019, published 2022).

In experiment [1] the target is T1, hSTING-R232 (Homo sapiens, UniProt Q86WV6, H232R).
T1 construct: recombinant mouse or human STING protein (aa140-379); 6xHis-SUMO elsewhere) (cleaved yes); made in house
Kind of experiment: STING Differential Scanning Fluorimetry (DSF) assay, human. The format is binding. Particulars: human STING R232-WT, 5 μM protein. As to the method:
A STING DSF assay was performed to determine protein thermostability shift in response to small molecule ligand binding. A STING thermostability shift assay based on differential scanning fluorimetry was used to measure (1) the net shift in melting temperature (ΔTm)between the apo and ligand-bound states of the STING protein and (2) the concentration of the thermal denaturation transition (FC50) as a surrogate measure of binding affinity (Kd). Briefly, recombinant mouse or human STING protein (aa140-379) comprising the C-terminal binding domain (R232-WT) were purified by affinity chromatography and further processed to remove the purification tag, followed by gel filtration to achieve purity >95%. Protein in assay buffer was transferred to a 384 well plate and incubated with the hydrophobic fluorescent dye SYBR Orange. A temperature ramp was applied to the plate and the resulting dye fluorescence was plotted as a function of temperature. The first derivative of this function (dF/dT) was then used to extrapolate the melting temperature of the protein at various concentrations of compound and determine the thermal denaturation profile of a protein/compound complex.
2. 5 μM purified Target STING Protein
4. Buffer: 100 mM NaCl, 30 mM HEPES, pH 7.5
5. Thermal Ramp: 0.5° C./min
7. 11 point, 2 fold dilution, duplicate, 300 μM high concentrations

For experiment [2], the target named is T2, STING protein (Homo sapiens, UniProt Q86WV6, H232R).
T2 construct: host or cells: THP-1 dual reporter cells, TMEM173 modified from HAQ to R232 (THP1-dual-KI R232)
T2 sequence (Q86WV6 whole entry H232R): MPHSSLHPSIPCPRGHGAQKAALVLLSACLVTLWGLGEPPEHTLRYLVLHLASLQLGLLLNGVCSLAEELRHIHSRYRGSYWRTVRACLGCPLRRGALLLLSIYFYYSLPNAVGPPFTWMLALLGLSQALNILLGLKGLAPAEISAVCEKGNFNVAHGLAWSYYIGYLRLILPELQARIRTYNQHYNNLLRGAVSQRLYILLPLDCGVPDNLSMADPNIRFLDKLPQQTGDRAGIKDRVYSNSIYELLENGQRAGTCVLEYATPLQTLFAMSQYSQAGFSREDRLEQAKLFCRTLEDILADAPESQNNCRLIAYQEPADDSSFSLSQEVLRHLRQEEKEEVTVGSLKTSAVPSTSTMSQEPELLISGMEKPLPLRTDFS
In words: Cell based reporter assay of IRF activation (THP1-dual-KI R232, IRF luciferase). The note with it: THP-1; read-out: THP1-dual-KI R232_IRF(Luciferase)_Activity Maximum measured (%). From the text: Cell reporter assays were developed to measure the ability of compounds of the application to activate the STING protein and activate both IRF/IFN and the NFkB signaling pathways in the myeloid derived cell line THP-1, which is commercially available from several suppliers. Briefly, THP-1 monocytes were transfected and selected for stable integration of 2 reporter constructs. Clones incorporating stably integrated vectors were further selected by antibiotic resistance to blastocidin and zeocin. The reporter constructs included: (1) firefly luciferase reporter gene under the control of an ISG54 promoter fused to five interferon (IFN)-stimulated response elements to measure IRF transcription factor binding activity and (2) secreted embryonic alkaline phosphatase reporter gene under transcription control of an IFN-beta minimal promoter fused to 5 copies of the NFkB consensus transcriptional response element and 3 copies of the c-Rel binding site.
The resulting THP-1 cell line was further modified to incorporate 3 amino acid point mutations (H71R A230G Q293R). This modification of the native TMEM173 gene in THP-1 cells (HAQ) was designed to produce a cell reporter that expressed the most common allelic variant in the human population (THP-1 R232, available from InvivoGen). Alternatively, the TMEM173 gene was knocked out to provide a congenic control to counter-screen for compound activation that was independent of the STING protein (THP-1 STING KO).
Once cell lines were established, reporter assay protocols were developed and optimized to screen small molecule compounds for agonist activity. Assay optimization for efficacy and Z′ value included titration of the following parameters:
1. No pre-activation with PMA
2. […]cells/well in 96 well plate format
7. Cell Titer Glo reagent (Promega) following supermatant removal
9. 8 point, 2 fold, duplicate starting at 150 μM PP28T

Experiment [3] addresses T3, human STING protein (140-379) (Homo sapiens, UniProt Q86WV6, H232R).
T3 construct: 6XHIS-SUMO-hSTING (140-379); made in house; host or cells: BL-21(DE3) E. coli, pET vector
In words: Radiometric filtration binding competition assay (WT_FBA_HIS-SUMO-hSWAT). The note with it: read-out: WT-hSWAT IC50. The method, then:
A radiometric filtration binding competition assay was performed to quantify the binding affinity of compounds of the present application for the human or mouse STING protein, or associated HAQ human isoform. The competition format filtration binding assay detects the ability of small molecule compounds from binding to and inhibiting the subsequent binding of a tritiated [H3] […] The resulting dose response was fit by non-linear regression to determine an IC50 value, from which a Ki value for each compound was extrapolated.
Briefly, the recombinant C-terminal ligand binding domain of the human STING protein (140-379) or mouse STING protein (139-328) [0.5 μM] was incubated in the presence of a compound of the present application (8 point, 2 fold dilution starting at 300 μM) for 30 min or under control conditions. […] The resulting complexes were then filtered, dried, and scintillation fluid was added and the remaining radio signal was measured to determine the degree of compound ligand inhibition. This assay format was optimized for both the WT and HAQ isoforms of the human protein and the mouse orthologue protein.
Parameters optimized: • a. Form of protein: 6×HIS-SUMO tag or untagged • b. Concentration of target protein: Minimum concentration that achieved >80 max signal • c. Assay DMSO concentration: 10%-0.1% • d. Assay Buffer: Base (Tris or phosphate), Salt concentration, +/−Tween (0.1-2%) • e. […] Probe Concentration: Minimum concentration that achieved max assay window • g. Assay Format: Scintillation Proximity Bead or Filtration Binding Plate • h. Assay Plate: 384 vs 96 well format • i. Assay incubation times for successive incubation steps
WT-hSWAT: WT_FBA_HIS-SUMO-hSWAT IC50 (μM) (“WT”=Wild-type); and WT-mSWAT: MOUSE_FBA_HIS-SUMO-mSWAT C50 (μM) which is the mouse isoform of STING protein.

T3 sequence (Q86WV6 140-379 H232R): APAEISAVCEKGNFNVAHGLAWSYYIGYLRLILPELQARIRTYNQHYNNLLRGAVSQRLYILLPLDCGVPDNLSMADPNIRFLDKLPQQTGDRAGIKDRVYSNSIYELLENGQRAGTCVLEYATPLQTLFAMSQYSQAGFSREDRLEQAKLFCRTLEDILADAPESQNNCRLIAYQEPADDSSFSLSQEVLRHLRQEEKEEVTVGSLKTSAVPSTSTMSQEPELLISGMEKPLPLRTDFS
T1 sequence (Q86WV6 140-379 H232R): as above

As for `COC1CC(CN(CC2CC2)c2ccc3c(=O)c4ccc(Cl)c(SC)c4n(CC(=O)O)c3n2)C1` (stereo not shown) [Compound 40, sodium 2-(8-chloro-2-((cyclopropylmethyl)((3-methoxycyclobutyl)methyl)amino)-9-(methylthio)-5-oxobenzo[b][1,8]naphthyridin-10(5H)-yl)acetate], the “WT_DSF_hSWAT Tm Shift (° C.)” value in experiment [1] was “D (“D” > 7° C.)”. In addition, the Emax in experiment [2] was > 50%. Further, the IC50 in experiment [3] was in the range of 20 to 100 µM.

In the case of `CN(C)c1c(Cl)ccc2c(=O)c3ccc(N(C)CCn4ccnc4)nc3n(CC(=O)O)c12` [Compound 80, sodium 2-[8-chloro-9-(dimethylamino)-2-{[2-(imidazole-1-yl)ethyl](methyl)amino}-5-oxobenzo[b]1,8-naphthyridin-10-yl]acetate], the “WT_DSF_hSWAT Tm Shift (° C.)” value in experiment [1] is listed as “D (“D” > 7° C.)”. Moreover, in experiment [2], the Emax is > 50%. For the same compound, the IC50 in experiment [3] was 20 to 100 µM.

Turning to `CO[C@H]1C[C@@H](N(C)c2ccc3c(=O)c4ccc(Cl)c(SC)c4n(CC(=O)O)c3n2)C1` (single isomer, unassigned) [Compound 44, 2-(8-chloro-2-(((1s,3s)-3-methoxycyclobutyl) (methyl)amino)-9-(methylthio)-5-oxobenzo[b][1,8]naphthyridin-10(5H)-yl)acetic acid], in experiment [1], the “WT_DSF_hSWAT Tm Shift (° C.)” value is “D (“D” > 7° C.)”. Further, the Emax in experiment [2] is > 50%. Also, the 50% inhibitory concentration (IC50) in experiment [3] fell in the range of 20 to 100 µM.

For `CSc1c(Cl)ccc2c(=O)c3ccc(N(C)C4CC(C#N)C4)nc3n(CC(=O)O)c12` (stereo not shown) [Compound 49, sodium 2-(8-chloro-2-((3-cyanocyclobutyl)(methyl)amino)-9-(methylthio)-5-oxobenzo[b][1,8]naphthyridin-10(5H)-yl)acetate], the “WT_DSF_hSWAT Tm Shift (° C.)” value in experiment [1] is “D (“D” > 7° C.)”. Besides, the Emax in experiment [2] was > 50%. In experiment [3], the IC50 lay in the range of 20 to 100 µM.

For `CSc1c(C)ccc2c(=O)c3ccc(N(C)C)nc3n(CC(=O)O)c12` [Compound 62, sodium 2-(2-(dimethylamino)-8-methyl-9-(methylthio)-5-oxobenzo[b][1,8]naphthyridin-10(5H)-yl)acetate], the “WT_DSF_hSWAT Tm Shift (° C.)” value in experiment [1] was “D (“D” > 7° C.)”. The Emax in experiment [2] is > 50%. Also, the IC50 in experiment [3] lay within 20 to 100 µM.

On to `CN(C)c1c(Cl)ccc2c(=O)c3ccc(C(C)(C)C)nc3n(CC(=O)O)c12` [Compound 5, [2-tert-butyl-8-chloro-9-(dimethylamino)-5-oxobenzo[b]1,8-naphthyridin-10-yl]acetic acid], for which, in experiment [1], the “WT_DSF_hSWAT Tm Shift (° C.)” value is on record as “D (“D” > 7° C.)”. For the same compound, in experiment [2], the Emax is > 50%. The IC50 in experiment [3] was < 20 µM.

As to `CSc1c(Cl)ccc2c(=O)c3cc(Cl)c(N(C)C)nc3n(CC(=O)O)c12` [Compound 58, sodium 2-(3,8-dichloro-2-(dimethylamino)-9-(methylthio)-5-oxobenzo[b][1,8]naphthyridin-10(5H)-yl)acetate], in experiment [1], the “WT_DSF_hSWAT Tm Shift (° C.)” value is reported as “D (“D” > 7° C.)”. Moreover, the Emax in experiment [2] was > 50%. In addition, the IC50 in experiment [3] is < 20 µM.

Consider `CCOc1c(Cl)ccc2c(=O)c3ccc(N(C)CC4CCOCC4)nc3n(CC(=O)O)c12` [Compound 33, 2-(8-chloro-9-ethoxy-2-(methyl((tetrahydro-2H-pyran-4-yl)methyl)amino)-5-oxobenzo[b][1,8]naphthyridin-10(5H)-yl)acetic acid], for which the “WT_DSF_hSWAT Tm Shift (° C.)” value in experiment [1] is reported as “D (“D” > 7° C.)”. The Emax in experiment [2] is > 50%. In experiment [3], the IC50 was 20 to 100 µM.

Consider `CN(C)c1c(Cl)ccc2c(=O)c3ccc(NCC4CC(F)(F)C4)nc3n(CC(=O)O)c12` [Compound 53, Sodium 2-(8-chloro-2-(((3,3-difluorocyclobutyl)methyl)amino)-9-(dimethylamino)-5-oxobenzo[b][1,8]naphthyridin-10(5H)-yl)acetate], for which the “WT_DSF_hSWAT Tm Shift (° C.)” value in experiment [1] is given as “D (“D” > 7° C.)”. In experiment [2], the Emax is > 50%. Also, the IC50 in experiment [3] was < 20 µM.

`Cc1ccc2c(=O)c3c(O)cc(Cl)c(N(C)C)c3n(CC(=O)O)c2n1` [Compound 9]: the “WT_DSF_hSWAT Tm Shift (° C.)” value in experiment [1] is “C (“C” = 2-7° C.)”. The Emax in experiment [2] is > 50%. Moreover, in experiment [3], the IC50 was in the range of 100 to 300 µM.

Turning to `CSc1c(Cl)ccc2c(=O)c3ccc(N(CC4CC4)CC4CC(F)(F)C4)nc3n(CC(=O)O)c12` [Compound 37, sodium 2-(8-chloro-2-((Cyclopropylmethyl)((3,3-difluorocyclobutyl)methyl)amino)-9-(methylthio)-5-oxobenzo[b][1,8]naphthyridin-10(5H)-yl)acetate], the “WT_DSF_hSWAT Tm Shift (° C.)” value in experiment [1] is reported as “D (“D” > 7° C.)”. Besides, the Emax in experiment [2] was > 50%. In addition, in experiment [3], the IC50 lay within 20 to 100 µM.

Regarding `CCc1nc2c(cc1Cl)c(=O)c1ccc(Cl)c(N(C)C)c1n2CC(=O)O` [Compound 17, 2-(3,8-dichloro-9-(dimethylamino)-2-ethyl-5-oxobenzo[b][1,8]naphthyridin-10(5H)-yl)acetic acid], in experiment [1], the “WT_DSF_hSWAT Tm Shift (° C.)” value is on record as “C (“C” = 2-7° C.)”. Besides, in experiment [2], the Emax is > 50%. Moreover, the IC50 in experiment [3] was in the range of 20 to 100 µM.

Turning to `COc1ccc2c(=O)c3ccc(Cl)c(N(C)C)c3n(CC(=O)O)c2n1` [Compound 21, 2-(8-chloro-9-(dimethylamino)-2-methoxy-5-oxobenzo[b][1,8]naphthyridin-10(5H)-yl) acetic acid], the “WT_DSF_hSWAT Tm Shift (° C.)” value in experiment [1] is “C (“C” = 2-7° C.)”. Further, the Emax in experiment [2] was > 50%. For the same compound, the IC50 in experiment [3] was 20 to 100 µM.

Turning to `CSc1c(Cl)ccc2c(=O)c3ccc(N(C)CC4CC(F)(F)C4)nc3n(CC(=O)O)c12` [Compound 36, Sodium 2-(8-chloro-2-(((3,3-difluorocyclobutyl)methyl)(methyl)amino)-9-(methylthio)-5-oxobenzo[b][1,8]naphthyridin-10(5H)-yl)acetate], the “WT_DSF_hSWAT Tm Shift (° C.)” value in experiment [1] is on record as “D (“D” > 7° C.)”. For the same compound, the Emax in experiment [2] is > 50%. The IC50 in experiment [3] lay in the range of 20 to 100 µM.

Regarding `CO[C@H]1C[C@H](N(C)c2ccc3c(=O)c4ccc(C)c(N(C)C)c4n(CC(=O)O)c3n2)C1` [Compound 66, 2-(9-(dimethylamino)-2-(((1r,3r)-3-methoxycyclobutyl)(methyl)amino)-8-methyl-5-oxobenzo[b][1,8]naphthyridin-10(5H)-yl)acetic acid], in experiment [1], the “WT_DSF_hSWAT Tm Shift (° C.)” value is listed as “C (“C” = 2-7° C.)”. Moreover, the IC50 in experiment [3] is 100 to 300 µM.

As to `CSc1c(Cl)ccc2c(=O)c3cc(Cl)c(N(C)CC4CCOCC4)nc3n(CC(=O)O)c12` [Compound 76, sodium 2-(3,8-dichloro-2-(methyl((tetrahydro-2H-pyran-4-yl)methyl)amino)-9-(methylthio)-5-oxobenzo[b][1,8]naphthyridin-10(5H)-yl)acetate], the “WT_DSF_hSWAT Tm Shift (° C.)” value in experiment [1] was “D (“D” > 7° C.)”. Also, the IC50 in experiment [3] was < 20 µM.
